Results published in paper PMC6556873, “Rapid Covalent-Probe Discovery by Electrophile-Fragment Screening” (Journal of the American Chemical Society, 2019).
Like-named read-outs stand apart in the source and are kept apart here.

Key:
in vitro [1] = experiment: in vitro; set-up: species or system CCD841, HEK293; settings: human, hb2 cells, read-out: HB-2 Cells Viability (%)
BSA = molecular target: T1, BSA (Bos taurus, UniProt P02769); set-up: Intact protein LC/MS covalent labelling, fragments in pools of five, 200 uM each, 4 °C; settings: 24 h, 4 °C, pool of five; 200 µM; covalent
T1 construct: gene ALB

OTUB2 (OTUB2A) = molecular target: T2, OTUB2 (OTUB2A) (Homo sapiens, UniProt Q96DC9); set-up: Intact protein LC/MS covalent labelling, fragments in pools of five, 200 uM each, 4 °C; settings: 24 h, 4 °C, pool of five; 200 µM; covalent
T2 construct: full length residues 1-234, E. coli BL21(DE3)-R3, His tag removed by TEV, construct 27312 Da
T2 sequence (Q96DC9 1-234): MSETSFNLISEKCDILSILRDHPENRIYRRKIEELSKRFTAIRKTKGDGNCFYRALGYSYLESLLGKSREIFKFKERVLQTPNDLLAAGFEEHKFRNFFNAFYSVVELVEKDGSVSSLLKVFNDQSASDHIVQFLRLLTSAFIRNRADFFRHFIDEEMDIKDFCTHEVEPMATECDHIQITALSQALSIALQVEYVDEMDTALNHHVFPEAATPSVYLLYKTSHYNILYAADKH

NUDT7 = molecular target: T3, NUDT7 (Homo sapiens, UniProt P0C024); set-up: Intact protein LC/MS covalent labelling, fragments in pools of five, 200 uM each, 4 °C; settings: 24 h, 4 °C, pool of five; 200 µM; covalent
T3 construct: residues 14-235, E. coli, pNIC28-Bsa4, N-terminal His6 tag removed by TEV, construct 26672 Da

PCAF = molecular target: T4, PCAF (Homo sapiens, UniProt Q92831); set-up: Intact protein LC/MS covalent labelling, fragments in pools of five, 200 uM each, 4 °C; settings: 24 h, 4 °C, pool of five; 200 µM; covalent
T4 construct: gene KAT2B

in vitro [2] = experiment: in vitro; set-up: species or system HB2, HEK293; settings: human, ccd841 cells
in vitro [3] = experiment: in vitro; set-up: species or system HB2, CCD841; settings: human, hek293 cells

T4 sequence (Q92831 whole entry, the tested form may be a part): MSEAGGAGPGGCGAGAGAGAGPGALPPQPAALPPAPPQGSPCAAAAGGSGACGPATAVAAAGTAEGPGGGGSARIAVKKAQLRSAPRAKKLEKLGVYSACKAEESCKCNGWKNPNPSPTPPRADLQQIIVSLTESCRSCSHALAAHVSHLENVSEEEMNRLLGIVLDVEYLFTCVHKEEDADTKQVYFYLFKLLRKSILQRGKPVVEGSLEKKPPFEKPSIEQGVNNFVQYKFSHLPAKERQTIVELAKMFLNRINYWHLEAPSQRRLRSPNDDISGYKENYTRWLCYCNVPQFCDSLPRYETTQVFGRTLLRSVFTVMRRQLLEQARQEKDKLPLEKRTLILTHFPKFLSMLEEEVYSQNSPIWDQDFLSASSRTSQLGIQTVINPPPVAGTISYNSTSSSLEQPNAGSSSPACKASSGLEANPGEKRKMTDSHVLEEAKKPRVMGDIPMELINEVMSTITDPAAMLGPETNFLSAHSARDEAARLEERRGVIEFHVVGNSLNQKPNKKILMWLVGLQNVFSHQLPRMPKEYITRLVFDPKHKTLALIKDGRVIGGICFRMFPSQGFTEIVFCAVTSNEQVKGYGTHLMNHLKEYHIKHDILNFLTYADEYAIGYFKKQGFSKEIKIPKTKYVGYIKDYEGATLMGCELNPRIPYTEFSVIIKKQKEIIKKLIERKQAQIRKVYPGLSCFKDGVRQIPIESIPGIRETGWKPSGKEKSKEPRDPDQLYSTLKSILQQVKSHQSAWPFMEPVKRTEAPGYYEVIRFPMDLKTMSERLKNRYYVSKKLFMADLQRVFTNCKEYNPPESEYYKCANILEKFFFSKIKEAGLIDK
T1 sequence (P02769 whole entry, the tested form may be a part): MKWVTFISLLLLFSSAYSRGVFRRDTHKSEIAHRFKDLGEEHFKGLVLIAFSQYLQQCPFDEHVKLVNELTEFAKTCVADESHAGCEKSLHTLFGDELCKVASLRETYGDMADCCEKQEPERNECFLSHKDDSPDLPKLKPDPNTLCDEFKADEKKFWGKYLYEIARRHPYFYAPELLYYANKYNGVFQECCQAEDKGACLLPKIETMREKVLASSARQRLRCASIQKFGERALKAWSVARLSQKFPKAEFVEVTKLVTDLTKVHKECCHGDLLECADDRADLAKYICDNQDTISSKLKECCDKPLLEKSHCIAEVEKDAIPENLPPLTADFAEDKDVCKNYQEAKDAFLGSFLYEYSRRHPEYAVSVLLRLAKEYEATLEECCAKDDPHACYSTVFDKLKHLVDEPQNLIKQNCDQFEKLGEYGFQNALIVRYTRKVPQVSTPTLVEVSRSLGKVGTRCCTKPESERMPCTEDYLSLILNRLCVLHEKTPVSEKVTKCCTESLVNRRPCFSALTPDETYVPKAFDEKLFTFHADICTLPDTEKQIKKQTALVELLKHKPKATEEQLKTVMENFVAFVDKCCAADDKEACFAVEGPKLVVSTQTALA
T3 sequence (P0C024 14-235): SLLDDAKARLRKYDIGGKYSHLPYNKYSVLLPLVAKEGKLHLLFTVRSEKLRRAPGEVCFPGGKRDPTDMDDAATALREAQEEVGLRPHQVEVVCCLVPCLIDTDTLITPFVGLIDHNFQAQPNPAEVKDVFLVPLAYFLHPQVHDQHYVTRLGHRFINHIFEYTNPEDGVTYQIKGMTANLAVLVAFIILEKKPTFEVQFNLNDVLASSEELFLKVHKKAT

| SMILES | viability at 48 h, 10 µM (in vitro [1]) [%] | BSA (BSA) | OTUB2 (OTUB2 (OTUB2A)) | NUDT7 (NUDT7) | PCAF (PCAF) | viability at 48 h, 10 µM (in vitro [2]) [%] | viability at 48 h, 10 µM (in vitro [3]) [%] |
| --- | --- | --- | --- | --- | --- | --- | --- |
| C=CC(=O)NC(=O)NCc1ccccc1 [PCM-0102834] | 23 | 0 | 0 | 0.35 | 0 | 57.4 | 17.9 |
| O=C(CCl)N1CCN(S(=O)(=O)c2ccc3ccccc3c2)CC1 [PCM-0102836] | 11.7 | 0 | 0 | 0 | 0 | 67.7 | 46.3 |
| O=C(CCl)N1CCN(S(=O)(=O)c2ccccc2Cl)CC1 [PCM-0102837] | 4.7 | 0 | 0 | 0.18 | 0 | 46.9 | 6 |
| CC(=O)c1sc(NC(=O)CCl)nc1C [PCM-0102838] | 96 | 0 | 0 | 0.12 | 0 | 92.1 | 87.2 |
| C=CC(=O)NCc1ccc(F)cc1 [PCM-0102839] | 105 | 0 | 0 | 0 | 0 | 111 | 87.3 |
| CN(C)c1ccc(Cl)cc1NC(=O)CCl [PCM-0102840] | 29.2 | 0 | 0.06 | 0.14 | 0.23 | 85.9 | 63.2 |
| COC(=O)C1Cc2ccccc2CN1C(=O)CCl (stereo not shown) [PCM-0102841] | 96.4 | 0 | 0.41 | 0.19 | 0 | 77.3 | 60.3 |
| C=CC(=O)N1CC(C(=O)NC)C1 [PCM-0102843] | 104 | 0.23 | 0.1 | 0 | 0 | 114 | 94.1 |
| C=CC(=O)N1CCC(N)CC1.Cl [PCM-0102844] | 109 | 0 | 0 | 0.2 | 0.25 | 98.2 | 124 |
| C=CC(=O)Nc1nc(-c2ccccc2C)cs1 [PCM-0102845] | 107 | 0 | 0 | 0 | 0 | 106 | 93.4 |
| O=C(CCl)Nc1ccc([N+](=O)[O-])cc1Br [PCM-0102848] | 54.1 | 0 | 0 | 0.24 | 0 | 68.4 | 47 |
| C=CC(=O)N1CCCC(S(=O)(=O)N2CCOCC2)C1 (stereo not shown) [PCM-0102849] | 107 | 0 | 0 | 0 | 0 | 97.2 | 97.9 |
| COC(=O)c1cccc(NC(=O)CCl)c1O [PCM-0102851] | 106 | 0 | 0.23 | 0.1 | 0 | 116 | 108 |
| O=C(CCl)Nc1cccnc1N1CCCC1 [PCM-0102852] | 106 | 0 | 0 | 0 | 0 | 100 | 115 |
| CC(C)(C)C(=O)NNC(=O)CCl [PCM-0102855] | 98.2 | 0 | 0 | 0.07 | 0 | 93.1 | 87.8 |
| C=CC(=O)Nc1ccccc1F [PCM-0102856] | 106 | 0 | 0 | 0 | 0 | 119 | 84 |
| Cc1ccc(S(C)(=O)=O)cc1NC(=O)CCl [PCM-0102858] | 58.6 | 0 | 0 | 0 | 0 | 66.6 | 19.2 |
| O=C(CCl)Nc1ccccc1N1CCCCC1 [PCM-0102860] | 111 | 0 | 0 | 0 | 0 | 109 | 97.5 |
| Cn1cccc1C(=O)NC(=O)CCl [PCM-0102863] | 106 | 0.2 | 0 | 0 | 0 | 112 | 92.2 |
| CN(Cc1ccsc1)C(=O)CCl [PCM-0102865] | 49.6 | 0 | 0 | 0.09 | 0 | 76.1 | 34 |
| O=C(CCl)N(c1ccc(F)cc1)C1C=CS(=O)(=O)C1 (stereo not shown) [PCM-0102868] | 27.9 | 0 | 0 | 0.34 | 0 | 33.4 | 6.2 |
| CN(C(=O)CCl)C1=CCCC1 [PCM-0102869] | 111 | 0 | 0 | 0 | 0 | 110 | 101 |
| O=C(CCl)N1CCOCC1C1CC1 (stereo not shown) [PCM-0102870] | 80.6 | 0 | 0 | 0.17 | 0 | 89.5 | 56.7 |
| Cc1csc(NC(=O)CCl)n1.Cl [PCM-0102872] | 90.4 | 0 | 0 | 0.16 | 0 | 94.9 | 91.9 |
| O=C(CCl)Nc1cc(F)cc(F)c1 [PCM-0102874] | 14.3 | 0 | 0 | 0.18 | 0 | 58.3 | 3.1 |
| N#Cc1ccc(NC(=O)CCl)cc1 [PCM-0102875] | 36.6 | 0 | 0.08 | 0.14 | 0 | 46 | 4.3 |
| CN(C)C(=O)c1ccc(NC(=O)CCl)cc1 [PCM-0102877] | 67.6 | 0 | 0 | 0 | 0 | 61.7 | 30.5 |
| Cc1cc(C)c(C(C)NC(=O)CCl)cc1C (stereo not shown) [PCM-0102879] | 87.3 | 0 | 0.17 | 0 | 0 | 83.7 | 59.6 |
